Drawing on patent publication US9868746B2, “Substituted 5-aminothieno[2,3-C]pyridazine-6-carboxamide analogs as positive allosteric modulators of the muscarinic acetylcholine receptor M4” (Vanderbilt University, priority 2012, dated 2018), this text covers Emax and EC50 for 53 compounds.

The target of this assay is T1, mAChR M4 (Homo sapiens, UniProt P08173).
T1 construct: expressed in transfected cells; host or cells: CHO-K1 cells stably transfected with M4 cDNA and chimeric G-protein Gqi5
T1 sequence (P08173 1-479): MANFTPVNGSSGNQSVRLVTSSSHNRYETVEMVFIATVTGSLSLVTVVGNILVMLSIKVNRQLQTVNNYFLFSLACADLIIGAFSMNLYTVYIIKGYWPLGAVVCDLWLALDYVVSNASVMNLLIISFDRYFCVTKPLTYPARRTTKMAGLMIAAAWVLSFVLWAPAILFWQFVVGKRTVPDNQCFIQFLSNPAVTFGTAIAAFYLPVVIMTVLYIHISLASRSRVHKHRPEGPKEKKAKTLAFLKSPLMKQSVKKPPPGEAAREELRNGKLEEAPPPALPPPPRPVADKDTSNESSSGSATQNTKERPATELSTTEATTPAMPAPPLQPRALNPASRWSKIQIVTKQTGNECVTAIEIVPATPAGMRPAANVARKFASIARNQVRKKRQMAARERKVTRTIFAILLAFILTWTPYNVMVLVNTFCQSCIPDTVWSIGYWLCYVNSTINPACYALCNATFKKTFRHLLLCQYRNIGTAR
In words: mAChR M4 cell-based functional assay (calcium mobilization, potentiation of EC20 acetylcholine response). The following applies: for Emax at 30 µM: % ACh maximum at 30 μM; for EC50: mAChR M4 cell-based functional assay, >10,000 estimated for low potency compounds without plateau, read-out: EC50.

By Emax is commonly meant the maximal effect, on the per cent scale that the assay sets. As a reminder, the EC50 is the midpoint of the concentration-response curve. As to `COCOc1ccc(CNC(=O)c2sc3nnc(C)c(C)c3c2N)cc1F` [Example B162], the Emax at 30 µM worked out at 66% and the EC50 is 0.017 µM.
Regarding `Cc1nnc2sc(C(=O)N3CCC(c4ccccc4)C3C)c(N)c2c1C` (stereo not shown) [Example B163], the maximal response (Emax) at 30 µM came out at 54% and the EC50 was 0.24 µM.
Regarding `COc1ccc(C2CCN(C(=O)c3sc4nnc(C)c(C)c4c3N)C2)cc1` (stereo not shown) [Example B164], the Emax at 30 µM was 39% and the 50% effective concentration (EC50) is 0.28 µM.
In the case of `CCCOC(=O)NC(CCl)CNC(=O)c1sc2nnc(C)c(C)c2c1N` (stereo not shown) [Example B165], the Emax at 30 µM is 32% and the EC50 is greater than 10 µM.
As for `Cc1nnc2sc(C(=O)N3CC(NC(=O)C4CC4)C3)c(N)c2c1C` [Example B166], the maximal response (Emax) at 30 µM stood at 41% and the EC50 is 3.1 µM.
For `Cc1nnc2sc(C(=O)N3CC(NC(=O)Oc4ccccc4)C3)c(N)c2c1C` [Example B167] the same measures were 65% and 0.47 µM.
The matching figures for `Cc1nnc2sc(C(=O)NCc3ccc(OC(F)F)cc3)c(N)c2c1C` [Example B168]: 76% and 0.013 µM.
`Cc1nnc2sc(C(=O)N3CC(NC(=O)c4ccccc4)C3)c(N)c2c1C` [Example B169]: the Emax at 30 µM came out at 68% and the concentration giving a half-maximal response (EC50) was 1.5 µM.
Consider `COC1(c2ccccc2)CN(C(=O)c2sc3nnc(C)c(C)c3c2N)C1` [Example B170], for which the maximal response (Emax) at 30 µM worked out at 60% and the concentration giving a half-maximal response (EC50) is 0.47 µM.
With `COc1ccc(CNC(=O)c2sc3nnc(C)c(C)c3c2N)cc1C(F)(F)F` [Example B171], the maximal response (Emax) at 30 µM worked out at 71% and the EC50 was 0.023 µM.
For `Cc1nnc2sc(C(=O)N3CC(NS(C)(=O)=O)C3)c(N)c2c1C` [Example B172] the same measures were 51% and greater than 10 µM.
For `Cc1nnc2sc(C(=O)N3CC(F)(c4ccccc4)C3)c(N)c2c1C` [Example B173], the Emax at 30 µM was 56% and the concentration giving a half-maximal response (EC50) was 0.17 µM.
Regarding `Cc1nnc2sc(C(=O)N3CC(NS(=O)(=O)c4cn(C)cn4)C3)c(N)c2c1C` [Example B174], the Emax at 30 µM was 51% and the EC50 is 6.7 µM.
With `CCCCCC(=O)NC1CN(C(=O)c2sc3nnc(C)c(C)c3c2N)C1` [Example B175], the Emax at 30 µM was determined as 52% and the concentration for a half-maximal effect (EC50) is greater than 10 µM.
Consider `Cc1nnc2sc(C(=O)NCc3ccc(OCC(F)F)cc3)c(N)c2c1C` [Example B176], for which the Emax at 30 µM was 73% and the EC50 is 0.023 µM.
`Cc1nnc2sc(C(=O)N3CC(NC(=O)CCc4ccccc4)C3)c(N)c2c1C` [Example B177]: the Emax at 30 µM was determined as 53% and the concentration giving a half-maximal response (EC50) is 0.97 µM.
Regarding `CCCOC(=O)NC1CN(C(=O)c2sc3nnc(C)c(C)c3c2N)C1` [Example B178], the Emax at 30 µM turned out to be 60% and the EC50 is 1.7 µM.
`Cc1nnc2sc(C(=O)N3CC(O)(c4ccccc4)C3)c(N)c2c1C` [Example B179]: the maximal effect (Emax) at 30 µM was found to be 33% and the concentration for a half-maximal effect (EC50) is 0.92 µM.
Turning to `Cc1nnc2sc(C(=O)N3CC(NS(=O)(=O)c4cccc5ncccc45)C3)c(N)c2c1C` [Example B180], the maximal response (Emax) at 30 µM turned out to be 43% and the EC50 is 1.1 µM.
For `Cc1nnc2sc(C(=O)NCc3ccc(OC(F)(F)F)cc3)c(N)c2c1C` [Example B181] the same measures were 68% and 0.03 µM.
The matching figures for `Cc1nnc2sc(C(=O)N3CC(NC(=O)C4CC4c4ccccc4)C3)c(N)c2c1C` (stereo not shown) [Example B182]: 59% and 2.3 µM.
The matching figures for `Cc1ccc(S(=O)(=O)NC2CN(C(=O)c3sc4nnc(C)c(C)c4c3N)C2)cc1` [Example B183]: 47% and 0.49 µM.
Take `Cc1nnc2sc(C(=O)N3CC(NC(=O)c4ccncc4)C3)c(N)c2c1C` [Example B184]: the maximal response (Emax) at 30 µM is 48% and the 50% effective concentration (EC50) was 1.9 µM.
As for `Cc1nnc2sc(C(=O)N3CC(NC(=O)C4CCCCC4)C3)c(N)c2c1C` [Example B185], the maximum response (Emax) at 30 µM amounted to 54% and the EC50 was 1.8 µM.
Consider `CC(O)(c1ccc(CNC(=O)c2sc3nnc4c(c3c2N)CCCC4)cc1)C(F)(F)F` (stereo not shown) [Example B188], for which the maximal response (Emax) at 30 µM amounted to 56% and the EC50 was 0.9 µM.
Take `Nc1c(C(=O)NCc2ccc(S(=O)(=O)C(F)(F)F)cc2)sc2nnc3c(c12)CCCC3` [Example B189]: the maximal effect (Emax) at 30 µM worked out at 42% and the EC50 is 0.42 µM.
For the compound `Cc1nnc2sc(C(=O)N3CC(NC(=O)OCc4ccccc4)C3)c(N)c2c1C` [Example B190], the Emax at 30 µM stood at 53% and the EC50 was 0.56 µM.
As for `Cc1nnc2sc(C(=O)N3CC(Br)(c4ccccc4)C3)c(N)c2c1C` [Example B191], the maximal effect (Emax) at 30 µM was 45% and the concentration giving a half-maximal response (EC50) is 2.1 µM.
As for `Cc1nnc2sc(C(=O)N[C@@H]3CCN(c4ccccc4)C3)c(N)c2c1C` [Example B192], the Emax at 30 µM amounted to 51% and the EC50 was 1.8 µM.
As for `Cc1nnc2sc(C(=O)N[C@H]3CCN(c4ccccc4)C3)c(N)c2c1C` [Example B193], the maximum response (Emax) at 30 µM is 63% and the EC50 is 0.014 µM.
Take `Cc1nnc2sc(C(=O)N3CCC4(CN(C(=O)OC(C)(C)C)C4)C3)c(N)c2c1C` [Example B194]: the maximal response (Emax) at 30 µM worked out at 30% and the EC50 was 4.7 µM.
On to `Cc1nnc2sc(C(=O)NCc3ccc4[nH]ccc4c3)c(N)c2c1C` [Example B195], for which the Emax at 30 µM was 62% and the half-maximal effective concentration (EC50) is 0.065 µM.
Turning to `Cc1nnc2sc(C(=O)NCc3ccc4c(ccn4C)c3)c(N)c2c1C` [Example B196], the Emax at 30 µM came to 69% and the 50% effective concentration (EC50) is 0.061 µM.
Consider `Cc1nnc2sc(C(=O)NCC3CN(C(=O)OC(C)(C)C)C3)c(N)c2c1C` [Example B197], for which the Emax at 30 µM was 35% and the concentration giving a half-maximal response (EC50) was greater than 10 µM.
The matching figures for `CCOc1ccc(CNC(=O)c2sc3nnc(C)c(C)c3c2N)cc1` [Example B198]: 63% and 0.025 µM.
As for `COCCOCCNC(=O)c1sc2nnc(C)c(C)c2c1N` [Example B199], the Emax at 30 µM stood at 52% and the EC50 was greater than 10 µM.
For the compound `Cc1nnc2sc(C(=O)NC3CCN(C(=O)c4cccs4)C3)c(N)c2c1C` (stereo not shown) [Example B200], the Emax at 30 µM was 74% and the EC50 was 0.091 µM.
For `Cc1nnc2sc(C(=O)N3CCC(NC(=O)N4CCOCC4)C3)c(N)c2c1C` (stereo not shown) [Example B201] the same measures were 56% and greater than 10 µM.
Regarding `Cc1nnc2sc(C(=O)N3CCC(NS(=O)(=O)c4cncn4C)C3)c(N)c2c1C` (stereo not shown) [Example B202], the Emax at 30 µM stood at 69% and the EC50 is 3.8 µM.
The matching figures for `Cc1nnc2sc(C(=O)NC3CCN(C(=O)Oc4ccccc4)C3)c(N)c2c1C` (stereo not shown) [Example B203]: 74% and 0.1 µM.
For the compound `Cc1nnc2sc(C(=O)N3CCC(NC(=O)c4ccncc4)C3)c(N)c2c1C` (stereo not shown) [Example B204], the maximal response (Emax) at 30 µM came out at 64% and the EC50 is 5 µM.
As for `Cc1nnc2sc(C(=O)N3CCC(NC(=O)Oc4ccccc4)C3)c(N)c2c1C` (stereo not shown) [Example B205], the Emax at 30 µM worked out at 71% and the 50% effective concentration (EC50) was 0.57 µM.
`Cc1nnc2sc(C(=O)NC3CCN(C(=O)OCc4ccccc4)C3)c(N)c2c1C` (stereo not shown) [Example B206]: the maximal effect (Emax) at 30 µM came out at 64% and the half-maximal effective concentration (EC50) is 0.031 µM.
`Cc1nnc2sc(C(=O)N3CCC(NS(=O)(=O)c4ccccc4)C3)c(N)c2c1C` (stereo not shown) [Example B207]: the maximal response (Emax) at 30 µM worked out at 64% and the EC50 is 1.3 µM.
As to `Cc1nnc2sc(C(=O)NC3CCN(C(=O)N4CCOCC4)C3)c(N)c2c1C` (stereo not shown) [Example B208], the maximum response (Emax) at 30 µM was determined as 73% and the concentration for a half-maximal effect (EC50) was 2.1 µM.
For `Cc1nnc2sc(C(=O)NC3CCN(S(=O)(=O)c4ccccc4OC(F)(F)F)C3)c(N)c2c1C` (stereo not shown) [Example B209] the same measures were 68% and 0.31 µM.
For `CCCOC(=O)NC1CCN(C(=O)c2sc3nnc(C)c(C)c3c2N)C1` (stereo not shown) [Example B210] the same measures were 58% and greater than 10 µM.
Consider `Cc1nnc2sc(C(=O)N3CCC(NS(=O)(=O)c4cccc(F)c4)C3)c(N)c2c1C` (stereo not shown) [Example B211], for which the maximal effect (Emax) at 30 µM came out at 70% and the half-maximal effective concentration (EC50) was 1.4 µM.
As for `CCCCOc1ccc(C(=O)N2CCC(NC(=O)c3sc4nnc(C)c(C)c4c3N)C2)cc1` (stereo not shown) [Example B212], the Emax at 30 µM came out at 76% and the EC50 was 0.87 µM.
For the compound `COc1cccc(S(=O)(=O)NC2CCN(C(=O)c3sc4nnc(C)c(C)c4c3N)C2)c1` (stereo not shown) [Example B213], the Emax at 30 µM amounted to 65% and the half-maximal effective concentration (EC50) was 4.5 µM.
As to `COc1cccc(S(=O)(=O)N2CCC(NC(=O)c3sc4nnc(C)c(C)c4c3N)C2)c1` (stereo not shown) [Example B214], the maximal effect (Emax) at 30 µM is 73% and the concentration for a half-maximal effect (EC50) was 0.82 µM.
Turning to `Cc1ccc(S(=O)(=O)N2CCC(NC(=O)c3sc4nnc(C)c(C)c4c3N)C2)s1` (stereo not shown) [Example B215], the maximum response (Emax) at 30 µM worked out at 75% and the EC50 was 0.34 µM.
The matching figures for `Cc1nnc2sc(C(=O)N3CCC(NC(=O)c4cccc(F)c4)C3)c(N)c2c1C` (stereo not shown) [Example B216]: 62% and greater than 10 µM.
